Assay results as given in article PMC9926234, “Iterative computational design and crystallographic screening identifies potent inhibitors targeting the Nsp3 macrodomain of SARS-CoV-2” (Proceedings of the National Academy of Sciences of the …, 2023).
Several values for one entry are separate records, joined by “and”; a condition that tells them apart may be missing. Identical values can stand only once.

Target: T1, SARS-CoV-2 NSP3 Mac1 (Severe acute respiratory syndrome coronavirus 2, UniProt P0DTD1)
Experiment: not given
Format: binding
Details: PanDDA event map 1-BDC; crystal soak, Compound_concentration 100 mM; PanDDA run dmso_34 or nohits_35 per dataset

Compound | 1-BDC
O=C(Nc1ccc(C(=O)NC2c3cccc(O)c3CC2C(=O)O)c2scnc12)NC1CC1 (centres unmarked) [Z8539_0065] | 0.09
CNC(=O)Nc1ccc(C(=O)NC2c3cccc(O)c3CC2C(=O)O)cc1 (centres unmarked) [Z8539_0077] | 0.25

Same assay, conditions: PanDDA event map background density correction; crystal soak, Compound_concentration 100 mM; PanDDA run dmso_34

Compound | 1-BDC
CC(O)CNc1cc(N2CC3(CCC3)C(F)(C(=O)O)C2)ncn1 (centres unmarked) [Z5722] | 0.18
OC[C@H]1CCCN(c2ncnc3[nH]c4cc(F)ccc4c23)C1 [Z7873] | 0.06

Same assay, conditions: PanDDA event map, 1-BDC of the hit dataset; crystal soak, compound concentration 100 mM

Compound | 1-BDC
O=C(CSc1nnn[nH]1)c1c[nH]c2ncc(Br)cc12 [R1104] | 0.3
Cc1c[nH]c2ncc(C(=O)N(C)c3nnn[nH]3)cc12 [R7335] | 0.26

Same assay, conditions: PanDDA event map, 1 minus background density correction; crystal soaking of Mac1

Compound | 1-BDC | 1-BDC (PanDDA)
O=C(CSc1nnn[nH]1)c1c[nH]c2ncc(Br)cc12 [R1104] | 0.27 | 
Cc1c[nH]c2ncc(C(=O)N(C)c3nnn[nH]3)cc12 [R7335] |  | 0.2
CC(O)CNc1cc(N2CC3(CCC3)C(F)(C(=O)O)C2)ncn1 (centres unmarked) [Z5722] | 0.18 | 
OC[C@H]1CCCN(c2ncnc3[nH]c4cc(F)ccc4c23)C1 [Z7873] | 0.06 | 
O=C(Nc1ccc(C(=O)NC2c3cccc(O)c3CC2C(=O)O)c2scnc12)NC1CC1 (centres unmarked) [Z8539_0065] |  | 0.09
CNC(=O)Nc1ccc(C(=O)NC2c3cccc(O)c3CC2C(=O)O)cc1 (centres unmarked) [Z8539_0077] | 0.2 | 

Same assay, conditions: crystal soak, Compound_concentration 100 mM, Echo dispense 40 nl; PanDDA run dmso_34

Compound | PanDDA hit?
CC(O)CNc1cc(N2CC3(CCC3)C(F)(C(=O)O)C2)ncn1 (centres unmarked) [Z5722] | TRUE
OC[C@H]1CCCN(c2ncnc3[nH]c4cc(F)ccc4c23)C1 [Z7873] | TRUE

Same assay, conditions: crystal soak, Compound_concentration 100 mM, Echo dispense 40 nl; PanDDA run dmso_34 or nohits_35 per dataset

Compound | PanDDA hit?
O=C(Nc1ccc(C(=O)NC2c3cccc(O)c3CC2C(=O)O)c2scnc12)NC1CC1 (centres unmarked) [Z8539_0065] | TRUE
CNC(=O)Nc1ccc(C(=O)NC2c3cccc(O)c3CC2C(=O)O)cc1 (centres unmarked) [Z8539_0077] | TRUE

Same assay, conditions: ligand modeled from this dataset; compound concentration 100 mM

Compound | Modeled?
Cc1c[nH]c2ncc(C(=O)N(C)c3nnn[nH]3)cc12 [R7335] | TRUE
CNC(=O)Nc1ccc(C(=O)NC2c3cccc(O)c3CC2C(=O)O)cc1 (centres unmarked) [Z8539_0077] | TRUE

Same assay, conditions: ligand modeled in crystal structure; crystal soak, Compound_concentration 100 mM; PanDDA run dmso_34

Compound | Modeled?
CC(O)CNc1cc(N2CC3(CCC3)C(F)(C(=O)O)C2)ncn1 (centres unmarked) [Z5722] | TRUE
OC[C@H]1CCCN(c2ncnc3[nH]c4cc(F)ccc4c23)C1 [Z7873] | TRUE

Same assay, conditions: ligand modeled in this dataset; crystal soak, Compound_concentration 100 mM

Compound | Modeled?
O=C(Nc1ccc(C(=O)NC2c3cccc(O)c3CC2C(=O)O)c2scnc12)NC1CC1 (centres unmarked) [Z8539_0065] | TRUE

Same assay, conditions: ligand occupancy after refinement (phenix.refine); crystal soaking of Mac1

Compound | Refined occupancy
O=C(CSc1nnn[nH]1)c1c[nH]c2ncc(Br)cc12 [R1104] | 54
Cc1c[nH]c2ncc(C(=O)N(C)c3nnn[nH]3)cc12 [R7335] | 40
CC(O)CNc1cc(N2CC3(CCC3)C(F)(C(=O)O)C2)ncn1 (centres unmarked) [Z5722] | 36
OC[C@H]1CCCN(c2ncnc3[nH]c4cc(F)ccc4c23)C1 [Z7873] | 12
O=C(Nc1ccc(C(=O)NC2c3cccc(O)c3CC2C(=O)O)c2scnc12)NC1CC1 (centres unmarked) [Z8539_0065] | 18
CNC(=O)Nc1ccc(C(=O)NC2c3cccc(O)c3CC2C(=O)O)cc1 (centres unmarked) [Z8539_0077] | 40

Same assay, conditions: overall hit flag: binding in crystallographic soaking or the HTRF-based binding assay

Compound | HIT*
CC(O)CNc1cc(N2CC3(CCC3)C(F)(C(=O)O)C2)ncn1 (centres unmarked) [Z5722] | Y
OC[C@H]1CCCN(c2ncnc3[nH]c4cc(F)ccc4c23)C1 [Z7873] | Y

Same assay, conditions: true hit = binding in crystallographic soaking or the HTRF-based binding assay

Compound | HIT*
O=C(CSc1nnn[nH]1)c1c[nH]c2ncc(Br)cc12 [R1104] | Y
Cc1c[nH]c2ncc(C(=O)N(C)c3nnn[nH]3)cc12 [R7335] | Y
O=C(Nc1ccc(C(=O)NC2c3cccc(O)c3CC2C(=O)O)c2scnc12)NC1CC1 (centres unmarked) [Z8539_0065] | Y
CNC(=O)Nc1ccc(C(=O)NC2c3cccc(O)c3CC2C(=O)O)cc1 (centres unmarked) [Z8539_0077] | Y

Target: T1, SARS-CoV-2 NSP3 Mac1
Experiment: biochemical
Format: binding
Details: not given

Compound | binding to Mac1 in the HTRF assay, result in words
CNC(=O)Nc1ccc(C(=O)NC2c3cccc(O)c3CC2C(=O)O)cc1 (centres unmarked) [Z8539_0077] | did not substantially change binding affinity

Same assay, conditions: HTRF ADPr-peptide displacement from SARS-CoV-2 Mac1; read-out: IC50

Compound | IC50
CC(O)CNc1cc(N2CC3(CCC3)C(F)(C(=O)O)C2)ncn1 (centres unmarked) [Z5722] | 464 µM and 460 µM
OC[C@H]1CCCN(c2ncnc3[nH]c4cc(F)ccc4c23)C1 [Z7873] | ≤ 90 µM and 90 µM
O=C(Nc1ccc(C(=O)NC2c3cccc(O)c3CC2C(=O)O)c2scnc12)NC1CC1 (centres unmarked) [Z8539_0065] | 3.3 µM

Same assay, conditions: HTRF; read-out: IC50

Compound | IC50 [µM]
O=C(CSc1nnn[nH]1)c1c[nH]c2ncc(Br)cc12 [R1104] | 55.3
Cc1c[nH]c2ncc(C(=O)N(C)c3nnn[nH]3)cc12 [R7335] | 42.2
O=C(Nc1ccc(C(=O)NC2c3cccc(O)c3CC2C(=O)O)c2scnc12)NC1CC1 (centres unmarked) [Z8539_0065] | 4.8
CNC(=O)Nc1ccc(C(=O)NC2c3cccc(O)c3CC2C(=O)O)cc1 (centres unmarked) [Z8539_0077] | 1

Same assay, conditions: HTRF; several values in a cell are separate determinations; read-out: IC50

Compound | IC50 [µM]
OC[C@H]1CCCN(c2ncnc3[nH]c4cc(F)ccc4c23)C1 [Z7873] | 90.3

Same assay, conditions: Ki estimation from HTRF-derived IC50, Cheng-Prusoff, peptide 400nM, Kd 2.68µM; read-out: Ki***

Compound | Ki [µM]
O=C(CSc1nnn[nH]1)c1c[nH]c2ncc(Br)cc12 [R1104] | 48.1
Cc1c[nH]c2ncc(C(=O)N(C)c3nnn[nH]3)cc12 [R7335] | 36.7
CC(O)CNc1cc(N2CC3(CCC3)C(F)(C(=O)O)C2)ncn1 (centres unmarked) [Z5722] | 404
OC[C@H]1CCCN(c2ncnc3[nH]c4cc(F)ccc4c23)C1 [Z7873] | 78.6
O=C(Nc1ccc(C(=O)NC2c3cccc(O)c3CC2C(=O)O)c2scnc12)NC1CC1 (centres unmarked) [Z8539_0065] | 4.2
CNC(=O)Nc1ccc(C(=O)NC2c3cccc(O)c3CC2C(=O)O)cc1 (centres unmarked) [Z8539_0077] | 0.9

Target: T1, SARS-CoV-2 NSP3 Mac1
Experiment: not given
Format: binding
Set-up: contains a conserved macrodomain enzyme (Mac1)
Details: DSF dose responsiveness, 1 µM nsp3 mac1; adj p given
Procedure, shortened: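 Differential scanning fluorimetry using 5 µM Fluorescent Yellow dye in place of SYPRO Orange. Compounds run in triplicate at seven two-fold dilutions from 1,000 or 100 μM, with ΔTma taken against a DMSO control in the same plate region. Dose-response significance assessed by Spearman's coefficient between concentration and ΔTma.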

Compound | Spearman est (compound concentration vs apparent Tm)
O=C(CSc1nnn[nH]1)c1c[nH]c2ncc(Br)cc12 [R1104] | 0.54
Cc1c[nH]c2ncc(C(=O)N(C)c3nnn[nH]3)cc12 [R7335] | 0.73
CC(O)CNc1cc(N2CC3(CCC3)C(F)(C(=O)O)C2)ncn1 (centres unmarked) [Z5722] | 0.59
OC[C@H]1CCCN(c2ncnc3[nH]c4cc(F)ccc4c23)C1 [Z7873] | 0.95

Same assay, conditions: maximal thermal upshift

Compound | DSF max dTma
O=C(CSc1nnn[nH]1)c1c[nH]c2ncc(Br)cc12 [R1104] | 1.16 ˚C
Cc1c[nH]c2ncc(C(=O)N(C)c3nnn[nH]3)cc12 [R7335] | 1.16 ˚C

Same assay, conditions: maximal thermal upshift vs DMSO control

Compound | DSF max dTma [°C]
CC(O)CNc1cc(N2CC3(CCC3)C(F)(C(=O)O)C2)ncn1 (centres unmarked) [Z5722] | 0.96
OC[C@H]1CCCN(c2ncnc3[nH]c4cc(F)ccc4c23)C1 [Z7873] | 1.5
